Molecular target: T1, saccharase from pig small intestinal mucosa (Sus scrofa, UniProt P56729)
T1 construct: sucrase and isomaltase chains cleaved from one SI precursor
Assay: Saccharase inhibition test in vitro
Type: biochemical
Conditions: solubilised saccharase 0.12 SU, sucrose substrate, 0.1 M sodium maleate buffer pH 6.0, 35° C.; 1 SIU = amount inhibiting two saccharase units by 50%
Protocol: A saccharase inhibitor unit (SIU) is defined as the amount of inhibitor which inhibits two saccharase units to the extent of 50%. A saccharase unit (SU) is the amount of enzyme which cleaves 1 μmol of sucrose into glucose and fructose in one minute under the test conditions given below. […] To perform the tests, 0.05 ml of a solution of saccharase^(1) which had been set at 0.12 SU was mixed with 0 to 20 μg of inhibitor or 0 to 20 μl of the solution for testing and made up with 0.1 M sodium maleate buffer of pH 6.0 or 0.1 ml. The mixture was equilibrated for 10 minutes at 35° C. and then mixed with 0.1 ml of a 0.05 M solution of sucrose in 0.1 M sodium maleate buffer of pH 6.0 pre-warmed to 35° C. After incubation for 20 minutes at 35° C., the saccharase reaction was stopped by addition of 1 ml of glucose oxidase reagent^(2), and incubation was continued for 30 minutes at 35° C. Thereafter 1 ml of 50% strength H2 SO4 was added and measured at 545 nm against an appropriate blank. For evaluation, the percentage inhibition of the saccharase employed is calculated and, with the aid of a glucose calibration curve, converted from the 50% inhibition point to SIU/g or SIU/liter. (1) Solubilised saccharase from pig small intestinal mucosa according to B. Borgstrom, A. Dahlquist, Acta Chem. Scand. 12, (1958), page 1997. Diluted with 0.1 M sodium maleate buffer of pH 6.0 to the appropriate SU content. (2) The glucose oxidase reagent is prepared by dissolving 2 mg of glucose oxidase (Boehringer No. 15423) in 100 ml of 0.565 M tris-HCl buffer of pH 7.0 and subsequently adding 1 ml of detergent solution (2 g of Triton X 100+8 g of 95% strength ethanol AR), 1 ml of dianisidine solution (260 mg of o-dianisidine 0.2 HCl in 20 ml of H2 O) and 0.5 ml of 0.1% strength aqueous peroxidase solution (Boehringer No. 15302).

T1 sequence (P56729 with tags, fused parts or gaps): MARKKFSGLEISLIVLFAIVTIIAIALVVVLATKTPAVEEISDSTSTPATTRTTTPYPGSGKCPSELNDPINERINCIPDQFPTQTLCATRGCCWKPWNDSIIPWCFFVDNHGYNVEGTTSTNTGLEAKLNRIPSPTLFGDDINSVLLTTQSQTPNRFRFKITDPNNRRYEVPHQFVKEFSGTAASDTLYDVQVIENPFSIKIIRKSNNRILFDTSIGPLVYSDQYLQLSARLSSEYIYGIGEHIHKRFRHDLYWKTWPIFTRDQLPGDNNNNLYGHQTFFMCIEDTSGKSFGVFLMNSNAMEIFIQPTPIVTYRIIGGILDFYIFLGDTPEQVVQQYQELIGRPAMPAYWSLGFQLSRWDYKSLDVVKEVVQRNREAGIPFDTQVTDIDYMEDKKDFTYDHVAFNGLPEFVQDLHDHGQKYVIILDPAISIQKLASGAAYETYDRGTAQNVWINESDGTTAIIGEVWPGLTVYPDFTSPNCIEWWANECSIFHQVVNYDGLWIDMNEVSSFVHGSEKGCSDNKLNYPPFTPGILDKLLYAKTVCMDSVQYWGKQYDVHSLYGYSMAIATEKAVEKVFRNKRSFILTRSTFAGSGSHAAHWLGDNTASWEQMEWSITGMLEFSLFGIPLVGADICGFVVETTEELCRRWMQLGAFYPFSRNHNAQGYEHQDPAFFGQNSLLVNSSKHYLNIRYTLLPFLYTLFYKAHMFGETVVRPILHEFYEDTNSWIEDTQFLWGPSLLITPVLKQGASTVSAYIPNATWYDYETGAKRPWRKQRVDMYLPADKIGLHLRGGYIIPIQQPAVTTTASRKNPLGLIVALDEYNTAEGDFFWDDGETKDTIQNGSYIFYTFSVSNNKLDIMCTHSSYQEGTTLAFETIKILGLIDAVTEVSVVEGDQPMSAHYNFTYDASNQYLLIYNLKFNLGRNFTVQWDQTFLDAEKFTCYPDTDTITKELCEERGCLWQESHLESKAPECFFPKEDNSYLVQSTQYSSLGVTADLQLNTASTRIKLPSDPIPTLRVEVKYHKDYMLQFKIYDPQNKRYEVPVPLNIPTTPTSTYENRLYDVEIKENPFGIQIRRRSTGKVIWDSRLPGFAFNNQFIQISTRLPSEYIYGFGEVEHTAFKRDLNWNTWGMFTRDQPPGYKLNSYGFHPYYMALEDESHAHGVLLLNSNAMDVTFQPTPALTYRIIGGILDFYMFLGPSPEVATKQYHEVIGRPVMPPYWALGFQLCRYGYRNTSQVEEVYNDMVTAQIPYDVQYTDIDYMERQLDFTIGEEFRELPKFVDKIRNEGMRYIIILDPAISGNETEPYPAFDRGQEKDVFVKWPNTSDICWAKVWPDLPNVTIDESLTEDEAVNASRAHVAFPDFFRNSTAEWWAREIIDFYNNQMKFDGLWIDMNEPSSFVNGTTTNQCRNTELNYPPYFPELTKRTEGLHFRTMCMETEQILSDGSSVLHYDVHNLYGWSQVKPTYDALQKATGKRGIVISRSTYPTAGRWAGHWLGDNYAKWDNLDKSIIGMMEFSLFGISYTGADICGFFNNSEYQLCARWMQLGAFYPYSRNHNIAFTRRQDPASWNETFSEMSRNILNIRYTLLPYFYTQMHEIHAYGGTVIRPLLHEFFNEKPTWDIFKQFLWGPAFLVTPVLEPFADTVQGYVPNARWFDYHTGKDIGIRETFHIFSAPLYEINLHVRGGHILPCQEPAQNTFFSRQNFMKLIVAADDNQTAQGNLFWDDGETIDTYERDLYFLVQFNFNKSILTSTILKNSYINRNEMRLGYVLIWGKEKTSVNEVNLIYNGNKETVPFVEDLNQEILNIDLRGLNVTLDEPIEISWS

Row | Effectiveness in the saccharase inhibition test in vitro (saccharase inhibitor units per g) | Structure (SMILES)
1 | 59 829 SIU/g | C[C@H]1O[C@H](O[C@H]2[C@H](O)[C@@H](O)[C@@H](O[C@H]3[C@H](O)[C@@H](O)C(O)O[C@@H]3CO)O[C@@H]2CO)[C@H](O)[C@@H](O)[C@@H]1N[C@H]1C[C@H](CO)[C@@H](O)[C@H](O)[C@H]1O (stereo partly shown) [Example 1]
2 | 38 850 SIU/g | COC1O[C@H](C)[C@@H](N[C@H]2C[C@H](CO)[C@@H](O)[C@H](O)[C@H]2O)[C@H](O)[C@H]1O (stereo partly shown) [Example 2]
3 | 38 850 SIU/g | COC1O[C@H](C)[C@@H](N[C@H]2C=C(CO)[C@@H](O)[C@H](O)[C@H]2O)[C@H](O)[C@H]1O (stereo partly shown)
4 | 77 700 SIU/g | C[C@H]1O[C@H](O[C@H]2[C@H](O)[C@@H](O)[C@@H](O[C@H]3[C@H](O)[C@@H](O)C(O)O[C@@H]3CO)O[C@@H]2CO)[C@H](O)[C@@H](O)[C@@H]1N[C@H]1C=C(CO)[C@@H](O)[C@H](O)[C@H]1O (stereo partly shown) [acarbose]

Reference: patent US4536493A, “Saturated aminocyclitol derivatives, their preparation and medicaments containing these compounds” (Baker Aktiengesellschaft, priority 1981, dated 1985)
